Test results as given in US12053451B2, “Arginase inhibitors and their therapeutic applications” (OncoArendi Therapeutics S.A., priority 2016, dated 2024).
pIC50: −log10 of the molar value. Structures can show the parent of a compound that is named as a salt.

Assays:
[1] = target: T1, recombinant human arginase 1 (Homo sapiens, UniProt P05089); assay: Human arginase activity assay (urea measurement), arginase 1; format: biochemical; conditions: recombinant human arginase 1, pH 7.4, 37° C., 60 min; * = value for the most potent diastereoisomer or the mixture of diastereoisomers; read-out: Activity Class (ARG I)
T1 construct: purchased Biolegend 552502
T1 sequence (P05089 1-322): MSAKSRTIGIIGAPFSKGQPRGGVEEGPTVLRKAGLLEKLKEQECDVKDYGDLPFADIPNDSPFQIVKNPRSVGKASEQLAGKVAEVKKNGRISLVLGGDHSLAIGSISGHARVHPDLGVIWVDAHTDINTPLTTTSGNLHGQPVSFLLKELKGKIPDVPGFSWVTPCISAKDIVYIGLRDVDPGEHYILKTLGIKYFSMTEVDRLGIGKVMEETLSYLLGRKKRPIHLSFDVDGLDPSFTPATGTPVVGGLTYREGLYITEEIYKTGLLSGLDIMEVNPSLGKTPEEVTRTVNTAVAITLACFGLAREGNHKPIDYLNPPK
Description: (§1) Human Arginase Activity Assay
The assay was run in the 96-well plate format, each reaction in the total volume of 100 uL. The assay is based on urea measurement, which is a product of L-arginine enzymatic degradation. […] The color product is developed by adding a mixture of reagent A (4 mM oPA in 50 mM boric acid in 1M sulfuric acid, 0.03% Brij-35) and reagent B (4 mM NED in 50 mM boric acid in 1M sulfuric acid, 0.03% Brij-35) in equal proportions. The absorbance for each well was measured at 530 nm.
(§2) For positive control, only the enzyme and substrate were used, the negative controls contained substrate solution with assay buffer. After incubating the microtiter plate at 37° C. for 60 min 150 μL of mixed reagents A and B was added to each well to stop the reaction. Absorbance was measured (λ=530 nm) 20 minutes later, after color development. The urea production in the absence of any compound was considered the maximum arginase activity. The absorbance in the absence of arginase (background) was subtracted from all the values. The normalized OD was used to generate a concentration-response curve by plotting the percent of inhibition against log[concentration] of the compound and using regression analysis (GraphPad Prism 7.0) to compute the IC50 values.

[2] = target: T2, recombinant human arginase 2 (Homo sapiens, UniProt P78540); assay: Human arginase activity assay (urea measurement), arginase 2; format: biochemical; conditions: for selected examples class estimated from % of inhibition at 1 μM and 100 μM, * = most potent diastereoisomer or mixture of diastereoisomers, read-out: Activity Class (ARG II)
T2 construct: made in house; host or cells: CHO
T2 sequence (P78540 23-354): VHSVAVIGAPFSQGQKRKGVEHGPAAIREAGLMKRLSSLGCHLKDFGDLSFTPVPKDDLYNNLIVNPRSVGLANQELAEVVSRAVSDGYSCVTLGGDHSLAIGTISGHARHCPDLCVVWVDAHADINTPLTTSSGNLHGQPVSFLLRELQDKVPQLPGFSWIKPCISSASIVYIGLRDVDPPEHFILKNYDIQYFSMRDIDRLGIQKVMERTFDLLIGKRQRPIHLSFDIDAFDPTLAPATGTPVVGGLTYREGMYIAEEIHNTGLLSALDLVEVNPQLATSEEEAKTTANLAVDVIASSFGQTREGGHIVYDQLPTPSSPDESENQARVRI
Description: as §1
An enzymatic assay with recombinant human arginases 1 (Biolegend, Cat. No. 552502) and 2 (homemade in eukaryotic expression system of CHO, purified by FPLC) was used in order to assess inhibitory activity of the compounds. The assay was run in the 96-well plate format, each reaction in the total volume of 100 uL. The assay is based on urea measurement, which is a product of L-arginine enzymatic degradation. (Baggio et al. J Pharmacol. Exp. Ther. 1999, 290, 1409-1416). The color product is developed by adding a mixture of reagent A (4 mM oPA in 50 mM boric acid in 1M sulfuric acid, 0.03% Brij-35) and reagent B (4 mM NED in 50 mM boric acid in 1M sulfuric acid, 0.03% Brij-35) in equal proportions. The absorbance for each well was measured at 530 nm.
as §2, with “Briefly, to each well of a 96-well microtiter plate 40 μL of enzyme in the reaction assay buffer (pH 7.4, 100 mM sodium phosphate buffer, 130 mM NaCl, 1 mg/mL albumin), 50 μL of the test compound solution and 10 μL of enzyme substrate solution (L-arginine hydrochloride, natural pH 5.6, final concentration 20 mM and a cofactor—manganese chloride, final concentration 150 μM) was added. For” for “For”
For selected examples the activity class for ARG2 was estimated based on % of inhibition for 1 μM and 100 μM concentration of tested compounds.

Structure (SMILES) | pIC50 [1] | pIC50 [2]
CN(C)C[C@@H]1C[C@@H](CCB(O)O)CC(N)(C(=O)O)C1 (mixture of isomers) [Example 55, rac-(3R,5R)-1-amino-3-(2-boronoethyl)-5-((dimethylamino)methyl)cyclohexanecarboxylic acid dihydrochloride] | 5.00 to 6.00 | –
N[C@]1(C(=O)O)C[C@H](CCB(O)O)CC[C@H]1O (racemic) [Example 13, rac-(1R,2R,5R)-1-Amino-5-(2-boronoethyl)-2-hydroxycyclohexane-1-carboxylic acid hydrochloride] | 6.00 to 7.00 | 4.00 to 5.00
NC1(C(=O)O)CCC(CCB(O)O)C1 (racemic) [Example 1, 1-amino-3-(2-boronoethyl)cyclopentane-1-carboxylic acid] | – | 5.00 to 6.00
COC(=O)[C@@]1(N)C[C@H](CCB(O)O)CC[C@H]1CN(C)C [Example 43, (2-((1R,3R,4S)-3-amino-4-((dimethylamino)methyl)-3-(methoxycarbonyl)cyclohexyl)ethyl)boronic acid dihydrochloride] | 4.00 to 5.00 | –
NC1(C(=O)O)CNC(CCB(O)O)C1 (centres unmarked) [Example 9, 3-Amino-5-(2-boronoethyl)pyrrolidine-3-carboxylic acid dihydrochloride] | < 4.00 | < 4.00
CN(Cc1ccccc1)CC1CCC(CCB(O)O)CC1(N)C(=O)O (centres unmarked) [Example 21, 1-Amino-2-((benzyl(methyl)amino)methyl)-5-(2-boronoethyl)cyclohexane-1-carboxylic acid dihydrochloride] | 6.00 to 7.00 | 5.00 to 6.00
NCC1CC(CCB(O)O)CC1(N)C(=O)O (centres unmarked) [Example 66, 1-amino-2-(aminomethyl)-4-(2-boronoethyl)cyclopentane-1-carboxylic acid dihydrochloride] | 6.00 to 7.00 | –
NC1(C(=O)O)C[C@H](CCB(O)O)CC[C@@H]1O (mixture of isomers) [Example 16, rac-(2S,5R)-1-Amino-5-(2-boronoethyl)-2-hydroxycyclohexane-1-carboxylic acid hydrochloride] | 4.00 to 5.00 | 4.00 to 5.00
NC[C@H]1C[C@](N)(C(=O)O)C[C@@H]1CCB(O)O (racemic) [Example 6, rac-(1S,3S,4S)-1-Amino-3-(aminomethyl)-4-(2-boronoethyl)cyclopentane-1-carboxylic acid dihydrochloride] | 5.00 to 6.00 | 5.00 to 6.00
C[C@H]1[C@H](CCB(O)O)CCC1(N)C(=O)O (mixture of isomers) [Example 2, rac-(2S,3R)-1-amino-3-(2-boronoethyl)-2-methylcyclopentane-1-carboxylic acid] | < 4.00 | < 4.00
N[C@]1(C(=O)O)CCC[C@@H](CCB(O)O)C1 (racemic) [Example 11, rac-(1R,3R)-1-Amino-3-(2-boronoethyl)cyclohexane-1-carboxylic acid hydrochloride] | 4.00 to 5.00 | –
CN(C)C1CCC(CCB(O)O)CC1(N)C(=O)O (racemic) [Example 64, rac-(1R,5R)-1-amino-5-(2-boronoethyl)-2-(dimethylamino)cyclohexane-1-carboxylic acid dihydrochloride] | 4.00 to 5.00 | –
N[C@@]1(C(=O)O)COC[C@H](CCB(O)O)C1 (racemic) [Example 60, rac-(3R,5R)-3-amino-5-(2-boronoethyl)tetrahydro-2H-pyran-3-carboxylic acid hydrochloride] | 4.00 to 5.00 | –
CC([C@@H]1CC[C@@H](CCB(O)O)C[C@]1(N)C(=O)O)N(C)C (stereo partly drawn) [Example 42, (1R,2S,5R)-1-amino-5-(2-boronoethyl)-2-(1-(dimethylamino)ethyl)cyclohexanecarboxylic acid dihydrochloride] | 4.00 to 5.00 | –
NC1(C(=O)O)CC(CCB(O)O)CCC1CO (centres unmarked) [Example 49, 1-amino-5-(2-boronoethyl)-2-(hydroxymethyl)cyclohexanecarboxylic acid hydrochloride] | 5.00 to 6.00 | –
N[C@]1(C(=O)O)C[C@H](CCB(O)O)CC[C@H]1CN1CCC(c2ccc(Cl)cc2)CC1 (racemic) [Example 27, rac-(1R,2S,5R)-1-amino-5-(2-boronoethyl)-2-((4-(4-chlorophenyl)piperidin-1-yl)methyl)cyclohexanecarboxylic acid dihydrochloride] | 6.00 to 7.00 | –
N[C@]1(C(=O)O)C[C@H](CCB(O)O)CC[C@H]1CN1CCCC1 [Example 23, (1R,2S,5R)-1-Amino-5-(2-boronoethyl)-2-(pyrrolidin-1-ylmethyl)-cyclohexane-1-carboxylic acid dihydrochloride] | 7.00 to 9.00 | –
CN(C)C[C@@H]1CC[C@@H](CCB(O)O)C[C@]1(N)C(=O)O (racemic) [Example 17, rac-(1R,2S,5R)-1-Amino-5-(2-boronoethyl)-2-((dimethylamino)methyl)-cyclohexane-1-carboxylic acid dihydrochloride] | 7.00 to 9.00 | –
NC[C@H]1C[C@@](N)(C(=O)O)C[C@@H]1CCB(O)O (racemic) [Example 7, rac-(1R,3S,4S)-1-Amino-3-(aminomethyl)-4-(2-boronoethyl)cyclopentane-1-carboxylic acid dihydrochloride] | 5.00 to 6.00 | –
NC1(C(=O)O)CC(CCB(O)O)N(Cc2ccccc2)C1 (centres unmarked) [Example 8, 3-Amino-1-benzyl-5-(2-boronoethyl)pyrrolidine-3-carboxylic acid dihydrochloride] | < 4.00 | –
N[C@@]1(C(=O)O)CNC[C@H](CCB(O)O)C1 (racemic) [Example 58, rac-(3R,5R)-3-amino-5-(2-boronoethyl)piperidine-3-carboxylic acid] | 4.00 to 5.00 | –
NC1(C(=O)O)CC(CCB(O)O)CCC1CCN1CCCC1 (racemic) [Example 25, 1-Amino-5-(2-boronoethyl)-2-(2-(pyrrolidin-1-yl)ethyl)cyclohexane-1-carboxylic acid dihydrochloride] | 7.00 to 9.00 | –
NC1(C(=O)O)CC(CCB(O)O)CCC1CN1CCOCC1 (centres unmarked) [Example 20, 1-Amino-5-(2-boronoethyl)-2-(morpholinomethyl)cyclohexane-1-carboxylic acid dihydrochloride] | 5.00 to 6.00 | –
CN(C)CC1CC(CCB(O)O)CC1(N)C(=O)O (racemic) [Example 67, 1-amino-4-(2-boronoethyl)-2-((dimethylamino)methyl)cyclopentane-1-carboxylic acid] | 4.00 to 5.00 | –
N[C@]1(C(=O)O)C[C@H](CCB(O)O)CC[C@H]1CN1Cc2ccccc2C1 (racemic) [Example 29, rac-(1R,2S,5R)-1-amino-5-(2-boronoethyl)-2-(isoindolin-2-ylmethyl)cyclohexanecarboxylic acid dihydrochloride] | 6.00 to 7.00 | –
N[C@@]1(C(=O)O)C[C@H](CCB(O)O)CC[C@H]1O (racemic) [Example 14, rac-(1S,2R,5R)-1-Amino-5-(2-boronoethyl)-2-hydroxycyclohexane-1-carboxylic acid hydrochloride] | 4.00 to 5.00 | –
